Data reported in patent publication US20240024365A1, “POTENTIATION OF BONE MARROW CELL ACTIVITY BY COADMINISTRATION WITH OXYTOCIN” (CREATIVE MEDICAL TECHNOLOGIES, INC., priority 2022, published 2024).

Tests used:
[1] = tested on: CD3/CD28 stimulated T cell proliferation; assay: CD3/CD28 stimulation of ProCell (oxytocin) treated bone marrow mononuclear cells: proliferation and cytokines; assay type: cell-based
Protocol: (§1) Methods: Immune modulatory activity of ProCell (oxytocin) was assessed by treatment of bone marrow mononuclear cells with ProCell (oxytocin) and subsequently assayed for proliferative ability and cytokine in response to CD3/CD28 stimulation. The concentration and incubation time of ProCell (oxytocin) identified for maximal immune modulatory effect was used to treat syngeneic bone marrow cells prior to implantation in the SJL/J model of EAE. Cell transplant experiments involving transfer of mesenchymal stem cells (CD105), monocytes (CD14), T cells (CD3) and B cells (CD20) where performed to identify the cellular population responsible for disease protective effect.

[2] = tested on: bone marrow mononuclear cells / endothelial progenitors; assay: Endothelial colony and tube formation of bone marrow cells; assay type: cell-based, human; conditions: for Endothelial colony formation: bone marrow cells incubated in ProCell, semi-solid media with endothelial differentiation cocktail
Protocol: (§2) Methods: ProCell(oxytocin) was assessed for ability to stimulate human umbilical vein endothelial cell (HUVEC) proliferation in vitro. Selected compounds where tested for ability to stimulate colony and tube formation. In vivo angiogenic activity was tested by administration of bone marrow mononuclear cells alone, or ProCell-treated bone marrow mononuclear cells in the hindlimb ischemia assay.
Bone marrow was aspirated from patients 3 patients 18-25 years old (Young Patients) and 3 patients 65-80 years old (Old Patients). The cells were either incubated in saline for 30 minutes or incubated in ProCell(oxytocin). Bone marrow cells were evaluated. Evaluation of colony formation was performed by plating mononuclear cells in semi-solid media containing endothelial differentiation cocktail. Number of colonies where counted.

[3] = tested on: human umbilical vein endothelial cell (HUVEC); assay: HUVEC proliferation in vitro; assay type: cell-based; conditions: compared among 73 factors tested
Protocol: as §2

hindlimb ischemia = assay: Hindlimb ischemia assay (femoral artery ligation), limb survival; assay type: in vivo, mice
Protocol: Methods: ProCell(oxytocin) was assessed for ability to stimulate human umbilical vein endothelial cell (HUVEC) proliferation in vitro. Selected compounds where tested for ability to stimulate colony and tube formation. In vivo angiogenic activity was tested by administration of bone marrow mononuclear cells alone, or ProCell-treated bone marrow mononuclear cells in the hindlimb ischemia assay. Bone marrow mononuclear cells where obtained from syngeneic mice. Cells where administered at a concentration of 1 million cells per leg intramuscularly on days 0, 2, and 4, Oxytocin was injected in the same area on the same days at a concentration of 0.1 IU per mouse. Injury was induced by ligation of the femoral artery and neurotrophic injury was induced. Limb survival was quantified.

critical limb ischemia = assay: Pilot study in patients with critical limb ischemia; assay type: in vivo, human patients
Protocol: Three patients suffering from critical limb ischemia were recruited. Patients matched the following inclusion criteria. a. Unreconstructable arterial disease was determined by a vascular surgeon who is not participating in the study. Unreconstructable arterial disease is defined by atherocclusive lesions within the arterial tree of the extremity that due to extent or morphology are not amenable to surgical bypass or PTCA and stenting. b. Objective evidence of severe peripheral arterial disease includes an ankle brachial index (ABI) of less than 0.55, and/or a resting toe brachial index (TBI) of […]. c. Patients must be competent to give consent. d. No history of malignant disease except for nonmelanoma skin cancer, no suspicious findings on chest x-ray, mammography (women over age 35), Papanicolaou smear (women over age 40), a normal fecal occult blood (over age 50) and a normal prostate specific antigen (men over age 45). Patients were injected with 10(8) bone-marrow mononuclear cells/aspirate, and administration of ProCell(oxytocin) was performed concurrently. Injections were performed using 10 million cells per injection, with 10 injections locally at the area of failed perfusion in a 10 cm×10 cm area in the gastrocnemius muscle. Ankle Brachial index was measured by comparing the ankle and brachial pressure.

[4] = tested on: allogeneic peripheral blood mononuclear cells (mixed lymphocyte reaction); assay: Mixed lymphocyte reaction (MLR) with ProCell (oxytocin) treated cord blood CD14 monocytes; assay type: cell-based, human; conditions: for Proliferation in MLR: ProCell treated CD14 monocytes added to MLR, tritiated thymidine; for Treg (FoxP3) generation in MLR: flow cytometry
Protocol: Methods: UCBMNC where treated with ProCell (oxytocin) and monocytic populations where extracted by CD14 Magnetic Activated Cell Separation (MACS). Immune modulatory activity of isolated cells was examined by coculture with allogeneic lymphocytes, as well as added to ongoing mixed lymphocyte reaction (MLR). Proliferation and cytokine production was assessed. Furthermore generation of T regulatory cells was examined by flow cytometry for FoxP3 and ability to suppress T cell proliferation stimulated by CD3/CD28.
Cryopreserved human umbilical cord mononuclear cells (UB-MNCs) were obtained from All Cells, LLC. Immediately prior to the experiment the UBMNC s were thawed in a 37° C. water bath for about one minute and then washed twice in 10 ml PBS with 100 μl DNase (Sigma #D4527-40KU, 1 mg/ml). The number of viable cells was determined using the trypan blue exclusion method. Cell viability generally ranged from 80% to 90%.
Using magnetic antibody cell sorting (MACS), UB-MNCs were selected CD14+ monocytes, the MNC were centrifuged at 1000 rpm×10 minutes, the supernatant aspirated and the cells resuspended in 80 μl of buffer per […] and incubated at 4° C. for 15 min. Antibody conjugated paramagnetic microbeads CD14 labeled beads (cat #130-050-201, Miltenyi Biotechwere used to enrich for monocytes. After incubation, the cells were washed with buffer and centrifuged at 1000 rpm for 10 min. The cells were resuspended in 500 μl of buffer, then passed through a magnetic column that trapped the paramagnetic beads and the cells they were attached to (AutoMacs Pro). The magnetic field was disengaged and the cells collected.
CD14 cells were cultured in ProCell (oxytocin) at various concentrations in Opti-Mem media with 10% fetal calf serum for 1 hour at 37 Celsius. Cells where subsequently washed in Phosphate Buffered Saline and plated in vitro. Assessment of Treg generation was performed in mixed lymphocyte reaction with allogeneic peripheral blood mononuclear cells. The culture lasted either 48 or 72 hours and various concentrations of ProCell (oxytocin) treated cord blood CD14 expressing cells where added to the responding PBMC. Evaluation of proliferation was performed using the tritiated thymidine method, and cytokine production was measured using ELISA.
Additionally, the stimulation of FoxP3 expression was performed by flow cytometry using fixation and permeabiliization method.

[5] = tested on: experimental autoimmune encephalomyelitis (EAE); assay: SJL/J model of experimental autoimmune encephalomyelitis (EAE), syngeneic bone marrow cells cultured in ProCell; assay type: in vivo
Protocol: as §1

[6] = bone marrow cells with concurrent ProCell, patients
[7] = ProCell treated monocytes, ELISA

`CC[C@H](C)[C@@H]1NC(=O)[C@H](Cc2ccc(O)cc2)NC(=O)[C@@H](N)CSSC[C@@H](C(=O)N2CCC[C@H]2C(=O)N[C@@H](CC(C)C)C(=O)NCC(N)=O)NC(=O)[C@H](CC(N)=O)NC(=O)[C@H](CCC(N)=O)NC1=O` [ProCell, Oxytocin] was tested, and the IFN-gamma production ([1]; CD3/CD28 stimulation) was “inhibition”, the IL-10 production ([1]; CD3/CD28 stimulation) was “upregulation” and the IL-12 production ([1]; CD3/CD28 stimulation) was “inhibition”. The TGF-beta production ([1]; CD3/CD28 stimulation) was “upregulation”, the “CD3/CD28 stimulated T cell proliferation” value ([1]; bone marrow mononuclear cells treated with ProCell) was “inhibitory effect” and the Endothelial colony formation [2] was “increases endothelial colony formation”. For the same compound, the Endothelial colony formation ([2]; listed as ProCell(oxytocin)) was “potent induction”, the Tube formation ([2]; endothelial progenitors and non-purified bone marrow mononuclear cells) was “potent induction” and the “Stimulation of HUVEC proliferation” value [3] was “highest stimulatory activity”. For the same compound, the Limb loss (hindlimb ischemia; ProCell incubated bone marrow cells) was “prevents limb loss”, the Limb loss (hindlimb ischemia; ProCell incubated bone marrow cells, listed as ProCell(oxytocin)) was “prevent limb loss” and the “Neoangiogenesis in hindlimb ischemia model” value (hindlimb ischemia; bone marrow mononuclear cells/aspirate incubated with ProCell) was “enhanced ability to stimulate neoangiogenesis”. For the same compound, the Limb loss (hindlimb ischemia; localized separate intramuscular administration of ProCell and bone marrow mononuclear cells/aspirate) was “prevention of limb loss”, the “Amputation during the study period” value (critical limb ischemia; 10(8) bone-marrow mononuclear cells/aspirate with concurrent ProCell) was “No patients reported amputation” and the “Critical limb ischemia, before and after photographs” value (critical limb ischemia; bone marrow cells with ProCell) was “improving critical limb ischemia”. The Ankle brachial index (critical limb ischemia; [6]) was “improving”, the Ankle pressure (critical limb ischemia; [6]) was “improving” and the “Proliferation in MLR” value [4] was “suppress proliferation”. The “Proliferation in MLR” value ([4]; listed as ProCell (oxytocin)) was “actively inhibited ongoing MLR”, the “TGF-beta in MLR” value ([4]; ProCell treated monocytes) was “augmentation” and the “IFN-gamma in MLR” value [4, 7] was “suppress IFN-Gamma”. For the same compound, the “IL-10 in MLR” value [4, 7] was “enhances IL-10”, the “IL-10 in MLR” value ([4]; ProCell treated monocytes, ELISA, listed as ProCell (oxytocin)) was “augmentation” and the “Treg (FoxP3) generation in MLR” value ([4]; ProCell treated monocytes) was “enhances Treg (FoxP3)”. The “Treg (FoxP3) generation in MLR” value ([4]; ProCell treated monocytes, listed as ProCell (oxytocin)) was “in vitro generation of active T regulatory cells was observed”, the “Stimulation of allogeneic T cell proliferation” value ([4]; coculture of ProCell cultured CD14 cells with allogeneic lymphocytes) was “did not stimulate allogeneic T cell proliferation” and the “Relapse of EAE” value ([5]; animals treated with ProCell cultured cells) was “accelerated reduction of relapse”. The “Inhibition of EAE” value ([5]; animals treated with ProCell cultured syngeneic bone marrow cells) was “Dose dependent inhibition of EAE” and the FoxP3 expressing cells ([5]; correlated with disease inhibition) was “increased FoxP3 expressing cells”.
